The record followed here is patent US8541363B2, “Pyruvamide compounds as inhibitors of dust mite group 1 peptidase allergen and their use” (St George's Hosptial Medical School, priority 2010, dated 2013).

pIC50: −log10 of the molar value.

Sequence of Der p 1 (P08176 99-320): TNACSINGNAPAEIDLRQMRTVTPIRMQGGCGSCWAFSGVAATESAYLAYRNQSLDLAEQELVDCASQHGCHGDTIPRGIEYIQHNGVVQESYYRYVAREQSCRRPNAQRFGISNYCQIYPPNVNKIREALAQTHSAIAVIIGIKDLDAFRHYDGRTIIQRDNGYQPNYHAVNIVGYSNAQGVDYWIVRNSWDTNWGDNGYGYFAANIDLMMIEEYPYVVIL

One assay deals with Der p 1 (Dermatophagoides pteronyssinus (European house dust mite), UniProt P08176). Put plainly: Der p 1 enzyme activity assay (FRET fluorogenic substrate). In kind it is biochemical. The note with it: Der p 1 IC50. The procedure:
The fluorogenic substrate used for measuring Der p 1 proteolytic activity was 2-aminobenzoylvalylalanylnorleucylseryl-(3-nitro)tyrosinyl aspartamide.
Test compounds were dissolved in dry DMSO and maintained at 4° C. as stock solutions until being diluted for use in screening assays. Final concentration of DMSO in all enzymatic assays was 0.5% v/v.
Reaction mixtures were assembled in a 96-well plate format (Perkin Elmer Optiplate 96F, Perkin Elmer LAS, Seer Green, Buckinghamshire, UK) using a Perkin Elmer MultiPROBE II Plus HTS EX robot with Gripper attachment. […] Dithiothreitol (DTT, 10 μL/well, 1 mM final concentration) was then added together with 10 μL of Der p 1 dissolved at 2.5 μg/mL in reaction buffer supplemented with 1 mM DTT. […] The plate was immediately transferred to a fluorescence plate reader (Perkin Elmer Fusion Alpha-FP or Perkin Elmer Envision) equipped with a temperature-controlled carrier set at 30° C. and the reaction followed by excitation/emission at 330/420 nm.
Inhibitory activity was analysed from progress curves of reactions in the presence of a range of inhibitor concentrations.
Initial velocity in each well was converted to fractional activity by Equation 1: Fractional activity=(Initial rate at inhibitor concentration[X]/Initial rate at inhibitor concentration zero)*100 Equation 1:
Then, IC50 was determined by fitting the data of fractional activity and inhibitor concentration to a 4-parameter logistic curve, using Equation 2: V=Vmin+[Vmax−Vmin]/[1+(X/IC50)Hillslope] […] Biological Data—Der p 1 Enzyme Assay
Consider `CC(C)[C@@H](NC(=O)[C@H](C)NC(=O)[C@@H](NC(=O)c1ccncc1)C(C)(C)C)C(=O)C(=O)NC1CCCCC1` [PVA-086], for which the negative-log IC50 (pIC50) was > 6.70.

Staying with this assay, now noted: threshold stated in text; read-out: Der p 1 IC50.
Turning to `Cc1cc(CNC(=O)C(=O)[C@@H](NC(=O)[C@H](C)NC(=O)[C@@H](NC(=O)c2ccccc2)C(C)(C)C)C(C)C)no1` [PVA-126], the pIC50 was > 6.70. The same measure, in the same setting: then `CC(C)[C@H](NC(=O)[C@H](C)NC(=O)[C@@H](NC(=O)c1cccc2ncccc12)C(C)(C)C)C(=O)C(=O)NCc1ccccc1` [PVA-150], with > 7.70; and `CC(C)[C@H](NC(=O)[C@H](C)NC(=O)[C@@H](NC(=O)c1ccccc1C(F)(F)F)C(C)(C)C)C(=O)C(=O)NCc1ccccc1` [PVA-182], with > 7.70. As to `CC(C)[C@H](NC(=O)[C@H](C)NC(=O)[C@H](Cc1ccccc1)NC(=O)c1ccccc1)C(=O)C(=O)NC1CCOCC1` [PVA-044], the pIC50 was > 6.70. The same measure, in the same setting: as for `CC(C)[C@H](NC(=O)[C@H](C)NC(=O)[C@@H](NC(=O)c1cccc2ccccc12)C(C)(C)C)C(=O)C(=O)NCc1ccc(S(N)(=O)=O)cc1` [PVA-215], the figure is > 7.70; as for `CC(C)[C@H](NC(=O)[C@H](C)NC(=O)[C@@H](NC(=O)c1ccccc1Oc1ccccc1)C(C)(C)C)C(=O)C(=O)NCc1ccccc1` [PVA-106], > 6.70; as for `CC(=O)Nc1cc(C(=O)N[C@H](C(=O)N[C@@H](C)C(=O)N[C@H](C(=O)C(=O)NCc2ccccc2)C(C)C)C(C)(C)C)ccn1` [PVA-064], > 6.70. In the case of `C[C@H](NC(=O)[C@H](Cc1ccccc1)NC(=O)c1ccccc1)C(=O)NCC(=O)C(=O)N1CCC(N(C)C)CC1` [PVA-018], the pIC50 was > 5.70. On the same count and under the same terms, as for `CC(C)[C@H](NC(=O)[C@H](C)NC(=O)[C@H](Cc1ccccc1)NC(=O)c1ccccc1)C(=O)C(=O)NCCc1ccccc1` [PVA-010], the figure is > 6.70; as for `Cc1cc(C(=O)N[C@H](C(=O)N[C@@H](C)C(=O)N[C@H](C(=O)C(=O)NCc2ccccc2)C(C)C)C(C)(C)C)[nH]n1` [PVA-107], > 6.70; as for `CNS(=O)(=O)c1ccc(CNC(=O)C(=O)[C@@H](NC(=O)[C@H](C)NC(=O)[C@@H](NC(=O)c2ccccc2)C(C)(C)C)C(C)C)cc1` [PVA-197], > 7.70. Still for that read-out and setting: as for `CC(C)[C@H](NC(=O)[C@H](C)NC(=O)[C@H](Cc1ccccc1)NC(=O)c1ccncc1)C(=O)C(=O)NCC1CCN(C)CC1` [PVA-170], the figure is > 6.70; as for `CC(C)[C@H](NC(=O)[C@H](C)NC(=O)[C@H](Cc1ccccc1)NC(=O)c1ccncc1)C(=O)C(=O)NC1CCCC1` [PVA-175], > 6.70; as for `CC(C)[C@H](NC(=O)[C@H](C)NC(=O)[C@H](Cc1ccccc1)NC(=O)c1ccccc1)C(=O)C(=O)NC1CCCCC1` [PVA-003], > 7.70. On the same count and under the same terms, as for `CC(C)[C@H](NC(=O)[C@H](C)NC(=O)[C@@H](NC(=O)c1ccccc1S(C)(=O)=O)C(C)(C)C)C(=O)C(=O)NCc1ccccc1` [PVA-108], the figure is > 7.70. As to `Cc1cc(C(=O)N[C@H](C(=O)N[C@@H](C)C(=O)N[C@H](C(=O)C(=O)NC2CC2)C(C)C)C(C)(C)C)[nH]n1` [PVA-141], the pIC50 is > 6.70.

`CC(C)[C@H](NC(=O)[C@H](C)NC(=O)[C@@H](NC(=O)c1ccccc1)C(C)(C)c1ccccc1)C(=O)C(N)=O` [PVA-143]: the negative logarithm of the IC50 (pIC50) was > 7.70. Still for that read-out and setting: then `CC(C)[C@H](NC(=O)[C@H](C)NC(=O)[C@@H](NC(=O)C1CCN(C)CC1)C(C)(C)C)C(=O)C(=O)NC1CCCCC1` [PVA-089], with > 6.70.

On to `CC(C)[C@H](NC(=O)[C@H](C)NC(=O)[C@@H](Cc1ccc(F)cc1)NC(=O)c1ccccc1)C(=O)C(=O)NC1CCCCC1` [PVA-027], for which the pIC50 was > 6.70. The same measure, in the same setting: then `CC(C)[C@H](NC(=O)[C@H](C)NC(=O)[C@H](Cc1ccccc1)NC(=O)c1ccccc1)C(=O)C(=O)N[C@@H](C)c1ccccc1` [PVA-016], with > 5.70; and `CC(C)[C@H](NC(=O)[C@H](C)NC(=O)[C@H](Cc1ccccc1)NC(=O)c1ccncc1)C(=O)C(=O)NCc1ccc(S(N)(=O)=O)cc1` [PVA-161], with > 7.70; and `CC(C)[C@H](NC(=O)[C@H](C)NC(=O)[C@@H](NC(=O)c1cncc2ccccc12)C(C)(C)C)C(=O)C(=O)NC1CCCCC1` [PVA-073], with > 7.70. Same read-out and setting: then `CC(C)[C@H](NC(=O)[C@H](C)NC(=O)[C@@H](NC(=O)c1ccccc1)C(C)(C)C)C(=O)C(=O)NC1CC1` [PVA-116], with > 7.70; and `C[C@H](NC(=O)[C@H](Cc1ccccc1)NC(=O)c1ccccc1)C(=O)NCC(=O)C(=O)NCc1ccccc1` [PVA-102], with > 6.70; and `CC(C)[C@H](NC(=O)[C@H](C)NC(=O)[C@@H](NC(=O)c1cnccn1)C(C)(C)C)C(=O)C(=O)NC1CCCCC1` [PVA-054], with > 6.70. On the same count and under the same terms, then `CC(C)[C@H](NC(=O)[C@H](C)NC(=O)[C@@H](Cc1ccccc1)NC(=O)c1ccncc1)C(=O)C(=O)NCc1ccccc1` [PVA-035], with > 7.70; and `CC(C)[C@H](NC(=O)[C@H](C)NC(=O)C1Cc2ccccc2N1C(=O)c1ccccc1)C(=O)C(=O)NCc1ccccc1` (stereo partly shown) [PVA-123], with > 6.70.

Take `CC(C)[C@H](NC(=O)[C@H](C)NC(=O)[C@@H](NC(=O)c1ccnc2ccccc12)C(C)(C)C)C(=O)C(=O)NC1CC1` [PVA-144]: the negative logarithm of the IC50 (pIC50) was > 7.70. The same measure, in the same setting: as for `CC(C)[C@H](NC(=O)[C@H](C)NC(=O)[C@@H](Cc1ccc(F)c(F)c1)NC(=O)c1ccccc1)C(=O)C(=O)NC1CCCCC1` [PVA-028], the figure is > 6.70; as for `CC(C)[C@H](NC(=O)[C@H](C)NC(=O)[C@@H](N1Cc2ccccc2C1=O)C(C)(C)C)C(=O)C(=O)NCc1ccc(N2CCN(C)CC2)nc1` [PVA-213], > 7.70; as for `CC(C)[C@H](NC(=O)[C@H](C)NC(=O)[C@H](Cc1ccccc1)N1Cc2ccccc2C1=O)C(=O)C(=O)NC1CCCCC1` [PVA-104], > 7.70.

With `CC(C)[C@H](NC(=O)[C@H](C)NC(=O)[C@@H](NC(=O)c1cccc(C(=O)O)c1)C(C)(C)C)C(=O)C(=O)NCC(=O)N1CCN(C)CC1` [PVA-130], the pIC50 is > 7.70. On to `COCCNC(=O)C(=O)[C@@H](NC(=O)[C@H](C)NC(=O)[C@H](Cc1ccccc1)NC(=O)c1ccccc1)C(C)C` [PVA-046], for which the negative-log IC50 (pIC50) was > 6.70. Same read-out and setting: then `CC(C)[C@H](NC(=O)[C@H](C)NC(=O)[C@@H](NC(=O)c1ccccc1)C(C)(C)C)C(=O)C(=O)NCc1ccc(OC(F)(F)F)cc1` [PVA-189], with > 6.70. In the case of `CC(C)[C@H](NC(=O)[C@H](C)NC(=O)[C@@H](N1Cc2ccccc2C1=O)C(C)(C)C)C(=O)C(=O)NCc1ccc(C(N)=O)cc1` [PVA-207], the negative-log IC50 (pIC50) is > 7.70.

Take `CC(C)[C@H](NC(=O)[C@H](C)NC(=O)[C@H](Cc1ccccc1)NC(=O)c1n[nH]c2ccccc12)C(=O)C(=O)NCc1ccccc1` [PVA-113]: the negative-log IC50 (pIC50) is > 6.70. Still for that read-out and setting: then `CC(C)[C@H](NC(=O)[C@H](C)NC(=O)[C@@H](NC(=O)c1ccccc1)C(C)(C)c1ccccc1)C(=O)C(=O)NC1CC1` [PVA-142], with > 6.70; and `CC(C)[C@H](NC(=O)[C@H](C)NC(=O)[C@@H](Cc1cccc(F)c1)NC(=O)c1ccccc1)C(=O)C(=O)NC1CCCCC1` [PVA-031], with > 6.70. Still for that read-out and setting: as for `CC(C)[C@H](NC(=O)[C@H](C)NC(=O)[C@@H](NC(=O)c1ccc(N2CCOCC2)nc1)C(C)(C)C)C(=O)C(=O)NC1CCCCC1` [PVA-049], the figure is > 6.70.
